# In publication PMC12593371, “Whole-Body Disposition and Metabolism of [^14C]-2,4,4′-Trichlorobiphenyl (PCB28) Following Lung Administration in Rats” (Environmental Science & Technology, 2025):
# Tests used:
# [1] = Mass balance and whole-body tissue distribution of radioactivity after intratracheal [14C]-PCB28; type: in vivo, Male Sprague–Dawley rats; conditions: for contribution of adipose tissue to total radioactivity: 720 min; for share of the remaining radioactivity: 12 min
# Excerpt: (§1) Male Sprague–Dawley rats (8 weeks old) weighing 230–285 g (mean of 256 g) were used in this study (Envigo, Indianapolis, IN). Male rats were selected to maintain consistency with previous toxicokinetic investigations of lower-chlorinated PCBs, specifically the study on intratracheally instilled ^14C-labeled dichlorinated PCB11, which also utilized male rats. This approach facilitated direct comparison across studies and contributed to a more comprehensive toxicokinetic data set for LC-PCBs following inhalation exposure. A PCB toxicokinetic study being published separately investigated placental transfer and fetal uptake in pregnant females. All animals were handled in compliance with an approved Institutional Animal Care and Use Committee protocol (protocol#: 3091097 approved on 10/12/2023). Rats were pair-housed in a light and temperature-controlled environment with access to food and water ad libitum. After 1 week of acclimatization, rats were assigned to either a high-dose (HD) group (n = 9) or a low-dose (LD) group (n = 5) at random. Control rats (n = 3) were exposed to a single dose of unlabeled PCB28 (42 μg in 200 μL) and necropsied 50 min after exposure to establish background levels for radioactivity calculations in blank tissues. […] Therefore, animal numbers were customized between groups to most efficiently utilize the limited available ^14C-PCB28 stock in our lab.
# (§2) Animals in the HD group were intratracheally (i.t.) administered 42 μg of a one-time single dose of [^14C]-PCB28 in 200 μL of vehicle, while animals in the LD group received 4.2 μg of [^14C]-PCB28 in 100 μL of vehicle. The i.t. route for dosing was selected due to the limited availability and extraordinary cost of the radiolabeled PCB28, and to avoid ^14C contamination of the inhalation exposure apparatus. All i.t. instillation was performed under light anesthesia (4% isoflurane via a precision vaporizer Fortec, Cyprane, Keighley, UK). Rats recovered from the anesthesia within 2 min while held within a cylindrical glass chamber (2 L), equipped with drainage ports to facilitate urine collection and a metallic screen to segregate urine from feces (as illustrated in Figure S1). Air was drawn from the chamber at 6.0 L/min through a cartridge containing XAD-2 polymeric resin (Amberlite, Millipore Sigma, Burlington, MA) to capture any exhaled [^14C]-PCB28. For the longer time points (720 and 1440 min), individual rats were placed in metabolic cages following a similar protocol for excreta and exhaled breath collection. After exposure, the inner walls of the chamber were rinsed separately with water, acetone, and hexane (25 – 45 mL) and wiped to measure radioactivity. Rat fur was also wiped and analyzed for radioactivity. The rats exposed to the HD were euthanized using isoflurane and exsanguination via cardiac puncture at 12, 25, 50, 100, 200, 400, 720, and 1440 min postexposure (n = 1 per time point except n = 2 for 200 min). Animals exposed to the LD were similarly necropsied at time points of 2, 12, 50, 200, and 720 min postexposure (n = 2). Euthanasia was consistently performed during the light cycle, except in the case of the 720 min time point, wherein euthanasia occurred outside the light cycle.
# Serum and blood cells were separated. Two to six technical replicates were collected from 36 tissue types and digestive matter (diluted in ultrapure water) from 5 different GI tract locations. Muscle and adipose tissue samples were obtained from various locations. The collected tissue samples were placed in scintillation vials containing 1 mL of solvable cocktail and kept at 37 °C overnight for complete solubilization. To enable subsequent analyses, the solubilized tissue samples underwent a 2-h heating phase at 50 °C. For the bone, feces, and digestive matter, 1 mL of isopropyl alcohol was added. For samples displaying darker coloration, a controlled volume of 30% hydrogen peroxide (100 to 300 μL) was slowly added in increments to remove potential interference. […]
# [2] = Fractionation of parent PCB28 and metabolites in serum, liver, adipose and kidney (liquid scintillation counting); type: in vivo, Male Sprague–Dawley rats; conditions: for peak concentration of parent compound in serum: 12 min
# Description: as §2
# Extractions of parent PCB28 and its hydroxylated, methyl sulfone, and conjugated metabolites in serum, liver, adipose, and kidney samples were conducted using our previous protocol. Individual extractable metabolites were separated using a series of liquid–liquid extractions, employing a graded array of solvents with increasing polarity to facilitate the partitioning of the analytes according to their inherent lipophilic characteristics (Figure S2). Subsequently, individual fractions were classified into respective categories, including the native PCB moiety, hydroxylated PCB (OH-PCB), methyl sulfonyl-PCB (MeSO2-PCB), conjugated metabolites, and unextractable components. Analytical recoveries were quantified for each extraction and separation step. Tissue samples (200–400 mg wet weight) were prepared for analysis in a two-step homogenization process using 2 mL of hexane/acetone solvent (50:50, vol/vol). The resultant solution was centrifuged, and then the pellet underwent two successive extractions with 1.5 mL of dichloromethane (DCM), chloroform/methanol (50:50 vol/vol), methanol/water (50:50 vol/vol), and water, respectively. […] The residual hydrophobic phase was quantified as native PCB28. The quantification of unlabeled PCB28, OH-PCBs (as MeO-PCB derivatives), and MeSO2–PCBs in standards spiked samples was performed on a gas chromatograph (Agilent 6890N) equipped with a ^63Ni μ-ECD detector and SLB-5MS capillary column (60 m × 0.25 mm I.D., 0.25 μm film thickness; Supelco, St Louis, MO). […]
# [3] = Toxicokinetic parameters by noncompartmental analysis after intratracheal administration of [14C]-PCB28; type: in vivo, Male Sprague–Dawley rats
# Excerpt: as §1
# as §2, with “Rats recovered from the anesthesia within 2 min while held within a cylindrical glass chamber (2 L), equipped with drainage ports to facilitate urine collection and a metallic screen to segregate urine from feces (as illustrated in Figure S1).” left out, “Animals exposed to the LD were similarly necropsied at time points of 2, 12, 50, 200, and 720 min postexposure (n = 2).” left out
# Serum and blood cells were separated. Two to six technical replicates were collected from 36 tissue types and digestive matter (diluted in ultrapure water) from 5 different GI tract locations. Muscle and adipose tissue samples were obtained from various locations. The collected tissue samples were placed in scintillation vials containing 1 mL of solvable cocktail and kept at 37 °C overnight for complete solubilization. To enable subsequent analyses, the solubilized tissue samples underwent a 2-h heating phase at 50 °C. For the bone, feces, and digestive matter, 1 mL of isopropyl alcohol was added. For samples displaying darker coloration, a controlled volume of 30% hydrogen peroxide (100 to 300 μL) was slowly added in increments to remove potential interference.
# [4] = parameters: method as in previously reported (number not given); conditions: oral exposure to a PCB mixture; ref previously reported (number not given); cited from earlier work
# [5] = parameters: method as in our prior study (number not given); conditions: acute inhalation exposure to a PCB mixture, estimated dose 40 μg/rat; ref our prior study (number not given); cited from earlier work
smiles,measurement,setting,value
"Clc1ccc(-c2ccc(Cl)cc2Cl)cc1 [PCB28, 2,4,4′-trichlorobiphenyl]",contribution of adipose tissue to total radioactivity,[1]; high dose,30%
same,contribution of adipose tissue to total radioactivity,[1]; low dose,28%
same,share of the retained radioactivity sequestered in skin and adipose tissue,[1]; 24 h,67–77%
same,total radioactivity remaining within the body,[1]; 24 h,88–92%
same,administered dose excreted via urine and feces,[1]; 24 h study,less than 4%
same,retention in the body or apparent bioavailability using fecal excretion,[1]; 24 h study,92%
same,increase of adipose [14C] concentration throughout the entire time course,[1]; high dose,6.5 fold
same,increase of adipose [14C] concentration throughout the entire time course,[1]; low dose,21 fold
same,reduction of quantified radioactivity between 12 and 50 min,[1]; blood,37–67%
same,total radioactivity excreted in the feces,[1]; by the end of the 24 h study period / at any time point,no more than 4%
same,time of peak concentration,"[1]; duodenum digestive matter, both doses",50 min
same,apparent bioavailability,"[1]; from fecal excretion, 24 h",up to 96%
same,nominal recovered radioactivity of the administered dose in the collected tissues,[1]; high dose (42 μg i.t.),83 ± 5%
same,"exhaled breath, share of the total recovered radioactivity",[1]; intratracheal dosing,0.07 ± 0.04%
same,pulmonary uptake,[1]; intratracheal lung dosing,99.9 ± 3.5%
same,reduction of quantified radioactivity between 12 and 50 min,[1]; kidney,36–69%
same,reduction of quantified radioactivity between 12 and 50 min,[1]; liver,41–58%
same,share of the remaining radioactivity,"[1]; liver, high dose",16.8%
same,share of the remaining radioactivity,"[1]; liver, low dose",20.6%
same,nominal recovered radioactivity of the administered dose in the collected tissues,[1]; low dose (4.2 μg i.t.),74 ± 13%
same,reduction of quantified radioactivity between 12 and 50 min,[1]; lung,56–73%
same,share of the remaining radioactivity,"[1]; muscle plus liver, high dose",~52.1%
same,share of the remaining radioactivity,"[1]; muscle, high dose",35.3%
same,share of the remaining radioactivity,"[1]; pulmonary regions, low dose",16.7%
same,more radioactivity retained in serum at the low dose than at the high dose,"[1]; serum, same time point",92%
same,time of peak radioactivity,[1]; stomach matter,50 min
same,increase of parent PCB28 concentration over the entire study time course,"[2]; adipose tissue, high dose",9 fold
same,increase of parent PCB28 concentration between 200 and 720 min,"[2]; adipose tissue, low dose",3 fold
same,increase of parent PCB28 concentration over the entire study time course,"[2]; adipose tissue, low dose",36 fold
same,peak concentration of parent compound in serum,[2]; high dose,47 dpm/mg
same,peak concentration of parent compound in serum,[2]; low dose,7.6 dpm/mg
same,"AUC, high dose compared to low dose",[3]; adipose tissue,18.7 fold
same,C24,"[3]; adipose, high dose (42 μg i.t.)",385 dpm/mg
same,C24,"[3]; adipose, low dose (4.2 μg i.t.)",63.7 dpm/mg
same,C24,"[3]; bladder, high dose (42 μg i.t.)",8.0 dpm/mg
same,C24,"[3]; bladder, low dose (4.2 μg i.t.)",6.4 dpm/mg
same,C24,"[3]; brain, high dose (42 μg i.t.)",11.0 dpm/mg
same,C24,"[3]; brain, low dose (4.2 μg i.t.)",2.4 dpm/mg
same,C24,"[3]; bronchi, high dose (42 μg i.t.)",205 dpm/mg
same,C24,"[3]; bronchi, low dose (4.2 μg i.t.)",48.6 dpm/mg
same,C24,"[3]; esophagus, high dose (42 μg i.t.)",13.0 dpm/mg
same,C24,"[3]; esophagus, low dose (4.2 μg i.t.)",8.8 dpm/mg
same,C24,"[3]; heart, high dose (42 μg i.t.)",17.0 dpm/mg
same,C24,"[3]; heart, low dose (4.2 μg i.t.)",3.2 dpm/mg
same,blood/plasma ratio (blood-to-serum ratio),[3]; high dose (42 μg i.t.),0.89
same,C24,"[3]; kidney, high dose (42 μg i.t.)",23.0 dpm/mg
same,C24,"[3]; kidney, low dose (4.2 μg i.t.)",5.6 dpm/mg
same,C24,"[3]; liver, high dose (42 μg i.t.)",22.0 dpm/mg
same,C24,"[3]; liver, low dose (4.2 μg i.t.)",5.7 dpm/mg
same,blood/plasma ratio (blood-to-serum ratio),[3]; low dose (4.2 μg i.t.),0.89
same,C24,"[3]; lung, high dose (42 μg i.t.)",44.0 dpm/mg
same,C24,"[3]; lung, low dose (4.2 μg i.t.)",6.4 dpm/mg
same,"AUC, high dose compared to low dose",[3]; muscle,15.7 fold
same,C24,"[3]; muscle, high dose (42 μg i.t.)",10.0 dpm/mg
same,C24,"[3]; muscle, low dose (4.2 μg i.t.)",3.2 dpm/mg
same,C24,"[3]; pancreas, high dose (42 μg i.t.)",93.0 dpm/mg
same,C24,"[3]; pancreas, low dose (4.2 μg i.t.)",29.5 dpm/mg
same,"AUC, high dose compared to low dose",[3]; prostate,17.1 fold
same,C24,"[3]; prostate, high dose (42 μg i.t.)",89.0 dpm/mg
same,C24,"[3]; prostate, low dose (4.2 μg i.t.)",15.9 dpm/mg
same,"serum AUC0–24 h, high dose compared to low dose",[3]; serum,approximately 10 fold
same,T1/2,"[3]; serum, high dose (42 μg i.t.), Table 1 prints mean (C–V%) without naming the dose",12 h
same,C24,"[3]; serum, low dose (4.2 μg i.t.)",0.80 dpm/mg
same,"AUC, high dose compared to low dose",[3]; skin,15.1 fold
same,C24,"[3]; skin, high dose (42 μg i.t.)",155 dpm/mg
same,C24,"[3]; skin, low dose (4.2 μg i.t.)",34.2 dpm/mg
same,"AUC, high dose compared to low dose",[3]; spleen,16.4 fold
same,C24,"[3]; spleen, high dose (42 μg i.t.)",18.0 dpm/mg
same,C24,"[3]; spleen, low dose (4.2 μg i.t.)",3.2 dpm/mg
same,C24,"[3]; testis, high dose (42 μg i.t.)",6.0 dpm/mg
same,C24,"[3]; testis, low dose (4.2 μg i.t.)",1.6 dpm/mg
same,C24,"[3]; thymus, high dose (42 μg i.t.)",23.0 dpm/mg
same,C24,"[3]; thymus, low dose (4.2 μg i.t.)",4.8 dpm/mg
same,C24,"[3]; thyroid, high dose (42 μg i.t.)",72.0 dpm/mg
same,C24,"[3]; thyroid, low dose (4.2 μg i.t.)",9.6 dpm/mg
same,C24,"[3]; trachea, high dose (42 μg i.t.)",86.0 dpm/mg
same,C24,"[3]; trachea, low dose (4.2 μg i.t.)",21.5 dpm/mg
same,time of peak adipose concentration,[4],24 h
Clc1cccc(-c2cccc(Cl)c2)c1 [PCB11],serum elimination half-life,[5],11.5 h
